Laboratory results published in patent US8288142B2, “Hyaluronidase and method of use thereof” (priority 2007, dated 2012).
Where two headings read alike, the source gives them in different places.

Columns and labels:
microbial hyaluronidase = format: biochemical, Streptomyces actinocidus; settings: for inhibition of hyaluronidase activity / effect on hyaluronidase: 10^−2 M; for inhibition of activity of microbial hyaluronidase: 10^−3 M; for effect on activity of microbial hyaluronidase: 10^−3-10^−4 M
[1] = tested on: hyaluronidase derived from Stm. Hyalurolyticus; settings: 10^−3-10^−4 M; Ohya 1970; cited from earlier work

| SMILES | Hyaluronidase activity (%) (microbial hyaluronidase; reagent or salt 10^−2 M) | Hyaluronidase activity (%) (microbial hyaluronidase; reagent or salt 10^−3 M) | Hyaluronidase activity (%) (microbial hyaluronidase; reagent or salt 10^−4 M) | inhibition of hyaluronidase activity (microbial hyaluronidase) [%] | inhibition of activity of microbial hyaluronidase (microbial hyaluronidase) [%] | effect on hyaluronidase (microbial hyaluronidase) | effect on activity of microbial hyaluronidase (microbial hyaluronidase) | effect on hyaluronidase derived from Stm. Hyalurolyticus [1] | Hyaluronidase activity (%) (microbial hyaluronidase) |
| --- | --- | --- | --- | --- | --- | --- | --- | --- | --- |
| O=S(=O)([O-])[O-].[Li+].[Li+] [LiSO4] | 100 | 100 | 100 |  |  |  |  |  |  |
| [Ca+2].[Cl-].[Cl-] [CaCl2] | 100 | 100 | 100 |  |  |  |  |  |  |
| O=S(=O)([O-])[O-].[Fe+2] [FeSO4] | 100 | 100 | 100 |  |  |  |  |  |  |
| O=S(=O)([O-])[O-].[Cu+2] [CuSO4] | 44 | 85 | 100 | 56 | 25 |  |  |  |  |
| II [I2] | 0 | 12 |  |  |  |  |  |  |  |
| O=C(O)c1cc[c]([Hg][Cl])cc1 [para-Chloromercury-benzoate] | 80 | 100 | 100 |  |  | partially inhibited | did not affect | inhibit |  |
| [Hg+2] [Hg^2+] |  |  |  |  |  |  |  | inhibit |  |
| [Cl-].[Na+] [NaCl] | 100 | 100 | 100 |  |  |  |  |  |  |
| [Cl][Fe]([Cl])[Cl] [FeCl3] | 35 | 85 | 100 | 65 | 25 |  |  |  |  |
| [Cl-].[Cl-].[Co+2] [CoCl2] |  |  |  |  |  |  |  |  | 100 |
| O=[N+]([O-])[O-].[Ag+] [AgNO3] | 100 | 100 | 100 |  |  |  |  |  |  |
| O=C(O)CN(CCN(CC(=O)O)CC(=O)O)CC(=O)O [EDTA] | 95 | 100 | 100 |  |  |  |  |  |  |
| [Cl-].[K+] [KCl] | 100 | 100 | 100 |  |  |  |  |  |  |
| [Cl][Mn][Cl] [MnCl2] | 100 | 100 | 100 |  |  |  | did not affect | inhibit |  |
| O=S(=O)([O-])[O-].[Zn+2] [ZnSO4] | 100 | 100 | 100 |  |  |  |  |  |  |
| OCCS [beta-Mercaptoethanol] | 0 | 65 | 100 |  |  | completely inhibited |  |  |  |
| [N-]=[N+]=[N-].[Na+] [Na3N] | 100 | 100 | 100 |  |  |  |  |  |  |
